Measurements from ChEMBL document CHEMBL4819048, “IDO1 and TDO inhibitory evaluation of analogues of the marine pyrroloiminoquinone alkaloids: Wakayin and Tsitsikammamines” (Bioorg Med Chem Lett, 2021).

How the values were obtained:
Format in all cases: cell-based
[1] = target: Indoleamine 2,3-dioxygenase 1 (Homo sapiens) (UniProt P14902); assay: Inhibition of human IDO1 expressed in HEK293-EBNA cells assessed as reduction in kynurenine formation using tryptophan as substrate at 25 uM incubated for 24 hrs by HPLC analysis relative to control
Indoleamine 2,3-dioxygenase 1 (Homo sapiens), sequence (P14902 whole entry, looked up): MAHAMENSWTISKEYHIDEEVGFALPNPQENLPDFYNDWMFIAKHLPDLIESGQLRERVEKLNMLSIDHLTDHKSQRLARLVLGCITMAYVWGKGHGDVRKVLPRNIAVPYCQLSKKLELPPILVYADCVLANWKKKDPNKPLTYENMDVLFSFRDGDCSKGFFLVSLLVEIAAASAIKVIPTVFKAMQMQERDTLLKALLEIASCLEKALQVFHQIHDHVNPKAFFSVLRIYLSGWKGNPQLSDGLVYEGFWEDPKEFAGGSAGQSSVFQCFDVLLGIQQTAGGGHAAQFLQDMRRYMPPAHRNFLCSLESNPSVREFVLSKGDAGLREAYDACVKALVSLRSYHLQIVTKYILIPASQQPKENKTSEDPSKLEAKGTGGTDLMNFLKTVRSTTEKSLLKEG

[2] = target: Indoleamine 2,3-dioxygenase 1 (Homo sapiens) (UniProt P14902); assay: Inhibition of human IDO1 expressed in HEK293-EBNA cells assessed as reduction in kynurenine formation using tryptophan as substrate at 12.5 uM incubated for 24 hrs by HPLC analysis relative to control
[3] = target: Indoleamine 2,3-dioxygenase 1 (Homo sapiens) (UniProt P14902); assay: Inhibition of human IDO1 expressed in HEK293-EBNA cells assessed as reduction in kynurenine formation using tryptophan as substrate at 6.25 uM incubated for 24 hrs by HPLC analysis relative to control
[4] = target: Indoleamine 2,3-dioxygenase 1 (Homo sapiens) (UniProt P14902); assay: Inhibition of human IDO1 expressed in HEK293-EBNA assessed as reduction in kynurenine formation using tryptophan as substrate at 3.12 uM incubated for 24 hrs by HPLC analysis relative to control
[5] = target: Tryptophan 2,3-dioxygenase (Homo sapiens) (UniProt P48775); assay: Inhibition of human TDO expressed in HEK293-EBNA cells assessed as reduction in kynurenine formation using tryptophan as substrate at 25 uM incubated for 24 hrs by HPLC analysis relative to control
Tryptophan 2,3-dioxygenase (Homo sapiens), sequence (P48775 whole entry, looked up): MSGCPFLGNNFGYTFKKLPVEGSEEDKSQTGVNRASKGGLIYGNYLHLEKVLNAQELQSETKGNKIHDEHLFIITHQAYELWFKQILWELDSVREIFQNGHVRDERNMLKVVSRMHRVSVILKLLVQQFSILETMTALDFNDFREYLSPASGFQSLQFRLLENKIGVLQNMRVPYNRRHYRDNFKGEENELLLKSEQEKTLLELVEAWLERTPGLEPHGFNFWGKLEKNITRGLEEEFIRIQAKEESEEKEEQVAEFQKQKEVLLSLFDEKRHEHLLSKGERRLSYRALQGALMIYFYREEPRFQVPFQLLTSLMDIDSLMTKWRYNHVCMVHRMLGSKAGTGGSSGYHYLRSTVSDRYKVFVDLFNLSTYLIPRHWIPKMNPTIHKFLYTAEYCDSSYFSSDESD

[6] = target: Tryptophan 2,3-dioxygenase (Homo sapiens) (UniProt P48775); assay: Inhibition of human TDO expressed in HEK293-EBNA cells assessed as reduction in kynurenine formation using tryptophan as substrate at 12.5 uM incubated for 24 hrs by HPLC analysis relative to control
[7] = target: Tryptophan 2,3-dioxygenase (Homo sapiens) (UniProt P48775); assay: Inhibition of human TDO expressed in HEK293-EBNA cells assessed as reduction in kynurenine formation using tryptophan as substrate at 6.25 uM incubated for 24 hrs by HPLC analysis relative to control
[8] = target: Tryptophan 2,3-dioxygenase (Homo sapiens) (UniProt P48775); assay: Inhibition of human TDO expressed in HEK293-EBNA cells assessed as reduction in kynurenine formation using tryptophan as substrate at 3.12 uM incubated for 24 hrs by HPLC analysis relative to control
[9] = Cytotoxicity against human HEK293-EBNA cells assessed as cell viability at 25 uM by MTS/PMS assay; settings: read-out: Activity
[10] = Cytotoxicity against human HEK293-EBNA cells assessed as cell viability at 12.5 uM by MTS/PMS assay; settings: read-out: Activity
[11] = Cytotoxicity against human HEK293-EBNA cells assessed as cell viability at 6.25 uM by MTS/PMS assay; settings: read-out: Activity
[12] = Cytotoxicity against human HEK293-EBNA cells assessed as cell viability at 3.12 uM by MTS/PMS assay; settings: read-out: Activity

| SMILES | inhibition [1] [%] | inhibition [2] [%] | inhibition [3] [%] | inhibition [4] [%] | inhibition [5] [%] | inhibition [6] [%] | inhibition [7] [%] | inhibition [8] [%] | viability at 25 µM [9] [%] | viability at 12.5 µM [10] [%] | viability at 6.25 µM [11] [%] | viability at 3.12 µM [12] [%] |
| --- | --- | --- | --- | --- | --- | --- | --- | --- | --- | --- | --- | --- |
| O=C1c2[nH]cc3c2C(=NCC3)c2c(-c3ccccc3)n[nH]c21 | 5 | 5 | 4 | 4 | 5 | 6 | 5 | 3 | 84 | 94 | 93 | 93 |
| Cc1ccc(S(=O)(=O)n2ccc3c2C(=O)C(NCCc2c[nH]c4ccccc24)=CC3=O)cc1 | 11 | 13 | 9 | 2 | 0 | 0 | -3 | -8 | 84 | 99 | 98 | 98 |
| O=C1c2c[nH]nc2C2=NCCc3c[nH]c1c32 | -1 | 0 | 2 | 2 | 9 | 8 | 8 | 6 | 90 | 91 | 92 | 93 |
| Cc1ccc(S(=O)(=O)n2ccc3c2C(=O)C=C(NCCc2c[nH]c4ccccc24)C3=O)cc1 | 39 | 38 | 28 | 23 | 67 | 31 | 12 | 5 | 26 | 56 | 69 | 75 |
| Cc1ccc(S(=O)(=O)n2ccc3c2C(=O)c2c(c(-c4c[nH]c5ccccc45)cn2C)C3=O)cc1 | 27 | 21 | 12 | 8 | -3 | 0 | 3 | 2 | 88 | 96 | 96 | 98 |
| Cc1ccc(S(=O)(=O)n2ccc3c2C(=O)c2[nH]c(C(=O)c4c[nH]c5ccccc45)c(C(=O)c4c[nH]c5ccccc45)c2C3=O)cc1 | 24 | 25 | 22 | 16 | -9 | -2 | 1 | -1 | 75 | 82 | 81 | 87 |
| Cc1ccc(S(=O)(=O)n2ccc3c2C(=O)c2[nH]c(C(=O)c4ccccc4)c(C(=O)c4ccccc4)c2C3=O)cc1 | 61 | 62 | 58 | 52 | 28 | 55 | 27 | 15 | 111 | 102 | 125 | 99 |
| Cc1ccc(S(=O)(=O)n2ccc3c2C(=O)c2c(-c4c[nH]c5ccccc45)cn(C)c2C3=O)cc1 | 28 | 26 | 20 | 12 | -8 | -1 | 2 | 2 | 95 | 97 | 98 | 100 |
| Cc1ccc(S(=O)(=O)n2ccc3c2C(=O)c2c4c(cn2S(=O)(=O)c2ccc(C)cc2)CCN=C34)cc1 |  |  |  |  |  |  |  |  | 67 | 85 | 88 | 87 |

Further lines, with some results ahead:

| inhibition [1] [%] | inhibition [2] [%] | inhibition [3] [%] | inhibition [4] [%] | inhibition [5] [%] | inhibition [6] [%] | inhibition [7] [%] | inhibition [8] [%] | SMILES | viability at 25 µM [9] [%] | viability at 12.5 µM [10] [%] | viability at 6.25 µM [11] [%] | viability at 3.12 µM [12] [%] |
| --- | --- | --- | --- | --- | --- | --- | --- | --- | --- | --- | --- | --- |
| 6 | 9 | 9 | 10 | 7 | 13 | 14 | 12 | Cc1ccc(S(=O)(=O)n2cc3c4c2C(=O)c2n[nH]cc2C4=NCC3)cc1 | 91 | 97 | 91 | 92 |
| 18 | 16 | 12 | 10 | -10 | 2 | 5 | 5 | Cc1ccc(S(=O)(=O)n2cc3c4c2C(=O)c2[nH]nc(-c5ccccc5)c2C4=NCC3)cc1 | 78 | 79 | 95 | 91 |
| 36 | 23 | 16 | 11 | 35 | 21 | 18 | 3 | Cc1ccc(S(=O)(=O)n2cc3c4c2C(=O)c2c(cnn2C)C4=NCC3)cc1 | 78 | 77 | 89 | 93 |
| 23 | 22 | 19 | 14 | 21 | 18 | 13 | 10 | Cc1ccc(S(=O)(=O)n2cc3c4c2C(=O)c2c(-c5ccccc5)n[nH]c2C4=NCC3)cc1 | 96 | 123 | 126 | 91 |
| -3 | -4 | -3 | 0 | 3 | -6 | -7 | -7 | Cc1ccc(S(=O)(=O)n2ccc3c2C(=O)c2[nH]cc4c2C3=NCC4)cc1 | 115 | 110 | 98 | 107 |
| 14 | 1 | 3 | 1 | 27 | 6 | 5 | -7 | Cc1ccc(S(=O)(=O)n2cc3c4c2C(=O)c2[nH]nc(N5C(=O)C(O)c6ccccc65)c2C4=NCC3)cc1 (centres undefined) | 31 | 84 | 107 | 104 |
| 11 | 15 | 12 | 10 | 15 | 23 | 19 | 15 | Cc1ccc(S(=O)(=O)n2cc3c4c2C(=O)c2cn[nH]c2C4=NCC3)cc1 | 93 | 110 | 106 | 87 |
